Read-outs that look alike come from different tables or passages of the source.
Key:
[1] = system: Cox B3; test: Anti-Coxsackie B3 CPE inhibitory assay in Vero cells; format: cell-based, Coxsackie viruses (Cox B3 Nancy strain); details: for IC50: Cox B3, 158TCID50, CPE, Reed and Muench
[2] = system: HSV-1; test: Anti-HSV-1 CPE assay in Vero cells; format: cell-based, HSV-1 virus
[3] = system: B/Jifang/13/97; test: Anti-influenza B CPE assay; format: cell-based
[4] = system: A/FM/1/47; test: Anti-influenza A CPE inhibitory assay in MDCK cells; format: cell-based, influenza A/FM/1/47(H1N1); details: for IC50: CPE, Reed and Muench

Compound | IC50 ([1]; Vero) | IC50 ([2]; Human alphaherpesvirus 1, Vero) | IC50 ([3]; Influenza B virus) | IC50 ([4]; Influenza A virus, MDCK) | other results
COC(=O)c1cc2c(OCc3ccccc3)cc(OC)cc2[nH]1 [Compound 12e, Methyl 4-(benzyloxy)-6-methoxy-1H-indole-2-carboxylate] | > 7.94 µM | > 7.94 µM | > 23.8 µM |  | 
COC(=O)c1cc2c(OCC3CCCCC3)cc(N)cc2[nH]1 [Compound 5f, Methyl 6-amino-4-(cyclohexylmethoxy)-1H-indole-2-carboxylate] | > 2.71 µM | > 8.15 µM |  | > 8.15 µM | 
COC(=O)c1cc2ccc(N)cc2[nH]1 [Compound 14f, Methyl 6-amino-1H-indole-2-carboxylate] | 67.5 µM | > 117 µM | 13 µM | 7.53 µM | anti-Cox B3 activity (in words) [1]: showed anti-Cox B3 activity; anti-influenza A activity (in words) [4]: showed anti-influenza A activity; antiviral activity against the influenza B strain (in words) [3]: displayed antiviral activity
COC(=O)c1cc2ccc(NC(C)=O)cc2[nH]1 [Compound 14e, Methyl 6-acetamido-1H-indole-2-carboxylate] | 72.8 µM | > 287 µM | > 95.8 µM | 95.8 µM | anti-Cox B3 activity (in words) [1]: showed anti-Cox B3 activity; anti-influenza A activity (in words) [4]: showed anti-influenza A activity
C=CCOc1cc(N)cc2[nH]c(C(=O)OC)cc12 [Compound 6f, Methyl 4-(allyloxy)-6-amino-1H-indole-2-carboxylate] | < 50 µM | > 30.1 µM | > 30.1 µM | < 52 µM | IC50 [1]: 30.1 µM
COC(=O)c1cc2c(OCC(C)C)cc(NC(C)=O)cc2[nH]1 [Compound 8e, Methyl 6-acetamido-4-isobutoxy-1H-indole-2-carboxylate] | > 24.4 µM | > 24.4 µM | > 8.13 µM | 8.13 µM | 
COC(=O)c1cc2c(OCc3ccccc3)cc(N)cc2[nH]1 [Compound 2f, Methyl 6-amino-4-(benzyloxy)-1H-indole-2-carboxylate] | 1.59 µM | > 2.78 µM |  | > 25.1 µM | 
Methyl 6-acetimidamido-4-methoxy-1H-indole-2-carboxylate [Compound 1e] |  |  |  |  | IC50 [1]: > 254 µM; IC50 ([2]; HSV-1, 100TCID50, CPE, Reed and Muench): > 254 µM; IC50 [4]: 254 µM; IC50 [3]: 254 µM; antiviral activity against the influenza B strain (in words) [3]: displayed antiviral activity
COC(=O)c1cc2c(OCc3ccccc3)cccc2[nH]1 [Compound 13e, Methyl 4-(benzyloxy)-1H-indole-2-carboxylate] | > 8.79 µM | > 8.79 µM | > 26.4 µM | < 52 µM | IC50 [4]: 26.4 µM
COC(=O)c1cc2c(OC)cccc2[nH]1 [Compound 11e, Methyl 4-methoxy-1H-indole-2-carboxylate] | 108 µM | > 108 µM | > 108 µM | 62.6 µM | 
CCOC(=O)C1=C[C@@H](OC(CC)CC)[C@H](NC(C)=O)[C@@H](N)C1 [Oseltamivir, oseltamivir, reference compound] |  |  | 115 µM | 6.43 µM | 
COC(=O)c1cc2c(OCc3ccc(OC)cc3)cc(N)cc2[nH]1 [Compound 4f, Methyl 6-amino-4-(4-methoxybenzyloxy)-1H-indole-2-carboxylate] | > 7.58 µM | > 7.58 µM |  | > 205 µM | 
COC(=O)c1cc2c(OC3CC3)cc(N)cc2[nH]1 [Compound 7f, Methyl 6-amino-4-cyclopropoxy-1H-indole-2-carboxylate] | 49.4 µM | > 85.5 µM |  | > 85.5 µM | 
COC(=O)c1cc2c(OC(C)C)cc(N)cc2[nH]1 [Compound 10f, Methyl 6-amino-4-isopropoxy-1H-indole-2-carboxylate] | > 89.6 µM | > 89.6 µM | > 89.6 µM | < 52 µM | IC50 [4]: 51.7 µM
COC(=O)c1cc2c(OCC(C)C)cc(N)cc2[nH]1 [Compound 8f, Methyl 6-amino-4-isobutoxy-1H-indole-2-carboxylate] | 7.18 µM | > 28.3 µM | > 9.43 µM | 9.43 µM | 
NC(=O)c1ncn([C@@H]2O[C@H](CO)[C@@H](O)[C@H]2O)n1 [RBV, ribavirin, reference compound] | 1060 µM |  | 10.1 µM | 2.58 µM | 
Nc1nc2c(ncn2COCCO)c(=O)[nH]1 [ACV, Acyclovir, reference compound] |  | 1.82 µM |  |  | 
COC(=O)c1cc2ccc(N(C)C)cc2[nH]1 [Compound 15e, Methyl 6-(dimethylamino)-1H-indole-2-carboxylate] | < 50 µM | 102 µM | > 102 µM | 102 µM | anti-Cox B3 activity (in words) [1]: showed anti-Cox B3 activity; IC50 [1]: 44.7 µM; activity towards HSV-1 (in words) [2]: showed activity; anti-influenza A activity (in words) [4]: showed anti-influenza A activity
COC(=O)c1cc2c(OC)ccc(N)c2[nH]1 [Compound 16f, Methyl 7-amino-4-methoxy-1H-indole-2-carboxylate] | > 33.7 µM | > 33.7 µM |  | > 3.73 µM | 
COC(=O)c1cc2c(OCc3ccc(F)cc3)cc(N)cc2[nH]1 [Compound 3f, Methyl 6-amino-4-(4-fluorobenzyloxy)-1H-indole-2-carboxylate] | 4.55 µM | > 7.87 µM |  | > 70.8 µM | 
CCOc1ccc(N)c2[nH]c(C(=O)OC)cc12 [Compound 17f, Methyl 7-amino-4-ethoxy-1H-indole-2-carboxylate] | 10.6 µM | 10.6 µM |  | > 10.6 µM | activity towards HSV-1 (in words) [2]: showed activity
COC(=O)c1cc2c(OCc3ccccc3)cc(NC(C)=O)cc2[nH]1 [Compound 2e, Methyl 6-acetamido-4-(benzyloxy)-1H-indole-2-carboxylate] | > 21.9 µM | > 21.9 µM |  | > 65.7 µM | 
COC(=O)c1cc2c(OC)cc(N)cc2[nH]1 [Compound 1f, Methyl 6-amino-4-methoxy-1H-indole-2-carboxylate] | > 33.7 µM | > 33.7 µM | > 33.7 µM | < 52 µM | IC50 [4]: 33.7 µM
CCCOc1ccc(N)c2[nH]c(C(=O)OC)cc12 [Compound 18f, Methyl 7-amino-4-propoxy-1H-indole-2-carboxylate] | < 50 µM | > 29.9 µM |  | > 3.31 µM | IC50 [1]: 29.9 µM
CCOc1cc(N)cc2[nH]c(C(=O)OC)cc12 [Compound 9f, Methyl 6-amino-4-ethoxy-1H-indole-2-carboxylate] | > 31.7 µM | > 31.7 µM | > 31.7 µM | 18.3 µM | 

— publication PMC4629079 (Acta Pharmaceutica Sinica. B, 2014)
